Source: US20220111122A1, “COMPOSITION FOR IMPROVED BONE FRACTURE HEALING” (CORTHOTEC LTD, priority 2019, published 2022)

What was measured:
[1] = system: osteoclast activity (as measured by bone resorption); experiment: zoledronate concentration versus bone resorption (FIG. 3); assay type: cell-based; conditions: osteoclast activity decreases significantly compared to lower concentrations
From the text: (§1) The graphs in FIGS. 3 and 4 depict the optimal concentrations of zoledronate (derived from zoledronic acid as the bisphosphonate) required to suppress bone resorption by means of a proportionate decrease in osteoclast number.

[2] = system: osteoclast number; experiment: zoledronate concentration versus osteoclast number (FIG. 4); assay type: cell-based; conditions: compared to lower concentrations
From the text: as §1

O=P(O)(O)C(O)(Cn1ccnc1)P(=O)(O)O [zoledronic acid]
concentration of optimal efficacy to suppress bone resorption [1]: approximately 10^−6 M | concentration of optimal efficacy to decrease osteoclast number [2]: approximately 10^−6 M
